In PMC5472792, “Bub1 positions Mad1 close to KNL1 MELT repeats to promote checkpoint signalling” (Nature Communications, 2017):
Substitutions are numbered along the chain they refer to. Square brackets hold non-standard residues; d marks the D form. Peptide text beside a SMILES is read from it. * marks the point of attachment. Biotin = O=C1N[C@H]2[C@H](CS[C@H]2CCCCC(=O)*)N1; pT = C[C@@H](OP(=O)(O)O)[C@H](N)C(=O)O; Nle = CCCC[C@H](N)C(=O)O

Legend:
[1] = target: T1, Mad1 597–718 (Homo sapiens, UniProt Q9Y6D9); assay: SPR, binding of CD1 peptides to Mad1 597–718 (steady-state affinity); details: ratio of Kd, SPR, Mad1 597–718
T1 construct: His (N); Strep (N); made in house; host or cells: E. coli BL21(DE3)
T1 sequence (Q9Y6D9 597-718): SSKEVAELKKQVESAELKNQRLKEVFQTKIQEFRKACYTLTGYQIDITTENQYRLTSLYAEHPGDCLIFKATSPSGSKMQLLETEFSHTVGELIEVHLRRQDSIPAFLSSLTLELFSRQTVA
Excerpt: (§1) To further investigate a possible direct interaction between Mad1 and CD1, we used surface plasmon resonance technology. […] To achieve a more efficient synthesis of CD1 peptides and in particularly of the phosphorylated peptides we used norleucine (Nle) instead of methionine (Met) but we cannot exclude that Mad1 will have a different affinity for peptides containing methionine. […] Given that Ser459 and Thr461 phosphorylation was critical for Bub1 functionality in vivo we tested if they affected Mad1 597–718 binding. […] As the Mad1 RLK motif is required for binding Bub1 in budding yeast in vivo[39], we tested whether this motif was required for direct binding to CD1 phosphorylated on Thr461. […] We furthermore analysed the binding of Mad1 597–718 to CD1 peptides harboring the Ile471Asp and […] (residues 474–476) mutations with Thr461 being phosphorylated.
Figure 4 Direct binding of Mad1 to CD1 peptide. (a) SPR steady-state responses for control, WT, pS459, pT461, pS459/pT461, I471D, MFQ/RKK and control Bub1 CD1 peptides to purified Mad1 597–718 protein. The biotinylated peptides were captured on a streptavidin-coated CM5 chip and increasing concentrations of Mad1 were subsequently added for binding assessment. Empty symbols represent experimental data points from two technical replicates using the same chip. An additional independent experiment with two replicates has been performed giving in all cases consistent results. The equilibrium dissociation constants, KD, were calculated using a steady-state affinity model and the lines represent the best fit to the model. […] (b) Similar to a, SPR steady-state responses for pT461 peptide with purified Mad1 597–718 or Mad1 597–718 RLK/AAA or the Mad1 485–718/Mad2 complex. (c) Sequence and summary of the affinity of CD1 peptides for Mad1 597–718 as determined by SPR.
Bub1 peptides were purchased from Biosyntan Gmbh (Germany). The purity obtained in the synthesis was 95–98% as determined by high-performance liquid chromatography (HPLC) and the identity of the peptides was confirmed by mass spectrometry. SPR experiments were performed on a Biacore T200 (GE Healthcare) at 25 °C. Streptavidin (ThermoFisher Scientific) at 0.05 mg ml^−1 in 10 mM sodium acetate, pH 4.5, was directly immobilized on a CM5 sensor chip (GE Healthcare) by standard amine coupling chemistry with N-hydroxysuccinimide and N-ethly-N′-(3-dimethlyaminopropyl)carbodiimide up to an immobilization level of approximately 2000 RU. Unreacted sites were quenched with ethanolamine HCl. Subsequently, N-terminal biotinylated Bub1 peptides (at 10 nM in HBS-EP+ buffer and flow rate 5 μl min^−1) were captured at ∼50 RU, respectively, in channels 2, 3 and 4 of the streptavidin coated chip, leaving channel 1 free for reference. An identical approach was used to prepare a second CM5 chip with the negative controls. In this case, a N-terminal biotinylated 5A mutant, a non-related phosphorylated peptide and the Bub1 pT461 peptide were captured, respectively, in channels 2, 3 and 4. HBS-EP+ (10 mM Hepes, pH 7.4, 150 mM NaCl, 3 mM EDTA, 0.05% (v/v) Surfactant P20) was used as running buffer for both streptavidin immobilization and peptide capture. […] Sensorgrams were analysed after double referencing. […]

[2] = target: T2, Mad1 597–718 RLK/AAA (Homo sapiens, UniProt Q9Y6D9, K619A/L618A/R617A); assay: SPR, binding of CD1 peptide to Mad1 597–718 RLK/AAA; details: Mad1 597–718 RLK/AAA injected up to 250 μM, 25 °C
T2 construct: His; Strep; made in house; host or cells: E. coli BL21(DE3) (stated for the wild-type construct)
T2 sequence (Q9Y6D9 597-718 R617A/L618A/K619A limits assumed): T1 sequence (Q9Y6D9 597-718) with R21A, L22A, K23A
Excerpt: as §1
Figure 4 Direct binding of Mad1 to CD1 peptide. […] The equilibrium dissociation constants, KD, were calculated using a steady-state affinity model and the lines represent the best fit to the model. […] (c) Sequence and summary of the affinity of CD1 peptides for Mad1 597–718 as determined by SPR.
Bub1 peptides were purchased from Biosyntan Gmbh (Germany). The purity obtained in the synthesis was 95–98% as determined by high-performance liquid chromatography (HPLC) and the identity of the peptides was confirmed by mass spectrometry. […]

stronger binding to Mad1 than unphosphorylated CD1 peptide [1]: 10 fold
binding [2]: no binding
Structure (SMILES): CCCC[C@H](NC(=O)[C@H](CC(N)=O)NC(=O)[C@H](CCCC)NC(=O)[C@@H](NC(=O)[C@H](Cc1ccccc1)NC(=O)CNC(=O)[C@H](CC(C)C)NC(=O)[C@H](C)NC(=O)[C@H](CCC(=O)O)NC(=O)[C@H](CCCCN)NC(=O)[C@@H](NC(=O)[C@H](Cc1c[nH]cn1)NC(=O)[C@@H](NC(=O)[C@@H](NC(=O)[C@@H]1CCCN1C(=O)[C@H](CO)NC(=O)[C@@H]1CCCN1C(=O)[C@H](CCC(N)=O)NC(=O)[C@@H](NC(=O)[C@H](CCCCN)NC(=O)[C@H](CO)NC(=O)[C@@H]1CCCN1C(=O)[C@@H](NC(=O)[C@H](C)NC(=O)[C@H](CCC(N)=O)NC(=O)[C@@H](NC(=O)CCCC[C@@H]1SC[C@@H]2NC(=O)N[C@@H]21)C(C)C)[C@@H](C)O)C(C)C)[C@@H](C)OP(=O)(O)O)C(C)C)[C@@H](C)O)[C@@H](C)CC)C(=O)N[C@@H](Cc1ccccc1)C(=O)N[C@@H](CCC(N)=O)C(=O)N[C@@H](C)C(=O)N1CCC[C@H]1C(=O)N[C@H](C(=O)N[C@@H](CC(C)C)C(=O)N[C@@H](Cc1c[nH]c2ccccc12)C(=O)O)[C@@H](C)O [CD1 pT461] (Biotin-VQATPSKVQPSP[pT]VHTKEALGFI[Nle]N[Nle]FQAPTLW-OH; C-terminus assumed)
